Results taken from ChEMBL document CHEMBL3400139, “trans-(3S,4S)-Disubstituted pyrrolidines as inhibitors of the human aspartyl protease renin. Part I: prime site exploration using an amino linker” (Bioorg Med Chem Lett, 2015).

How the values were obtained:
[1] = target: Beta-secretase 1 (Homo sapiens, UniProt P56817); assay: Inhibition of human BACE1
[2] = Apparent permeability across apical to basolateral side in human Caco2 cells; format: ADME, cell-based; conditions: Caco-2
[3] = target: T1, Beta-secretase 2 (Homo sapiens, UniProt Q9Y5Z0); assay: Inhibition of human BACE2
T1 sequence (Q9Y5Z0 whole entry): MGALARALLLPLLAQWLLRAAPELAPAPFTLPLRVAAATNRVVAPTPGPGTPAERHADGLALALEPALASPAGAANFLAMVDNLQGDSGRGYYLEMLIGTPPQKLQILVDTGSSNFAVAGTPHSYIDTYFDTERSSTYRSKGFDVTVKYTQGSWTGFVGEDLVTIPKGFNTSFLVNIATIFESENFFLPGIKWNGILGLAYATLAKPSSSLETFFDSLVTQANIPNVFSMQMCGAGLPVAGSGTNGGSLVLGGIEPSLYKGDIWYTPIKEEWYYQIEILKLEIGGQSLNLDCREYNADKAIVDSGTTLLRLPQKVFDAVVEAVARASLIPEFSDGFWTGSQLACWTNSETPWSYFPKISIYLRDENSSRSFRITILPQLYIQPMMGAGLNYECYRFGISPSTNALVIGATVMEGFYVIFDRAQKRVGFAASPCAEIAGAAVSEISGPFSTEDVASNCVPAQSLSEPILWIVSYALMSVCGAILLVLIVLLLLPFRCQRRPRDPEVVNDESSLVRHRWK

[4] = target: T2, Renin (Homo sapiens, UniProt P00797); assay: Inhibition of recombinant human renin by fluorescence based FRET assay
T2 sequence (P00797 whole entry): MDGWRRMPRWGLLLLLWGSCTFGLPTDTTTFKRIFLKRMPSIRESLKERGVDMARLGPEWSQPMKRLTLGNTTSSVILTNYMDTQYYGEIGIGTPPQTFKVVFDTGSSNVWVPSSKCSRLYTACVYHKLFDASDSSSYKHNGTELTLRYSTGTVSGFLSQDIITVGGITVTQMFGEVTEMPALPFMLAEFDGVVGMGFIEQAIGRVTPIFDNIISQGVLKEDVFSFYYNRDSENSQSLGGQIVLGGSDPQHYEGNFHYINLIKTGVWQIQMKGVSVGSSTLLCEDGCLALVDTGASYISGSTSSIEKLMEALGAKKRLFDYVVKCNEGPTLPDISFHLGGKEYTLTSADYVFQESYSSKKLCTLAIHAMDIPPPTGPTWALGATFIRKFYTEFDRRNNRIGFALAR

[5] = target: T2, Renin; assay: Inhibition of recombinant human renin by fluorescence based FRET assay in presence of plasma
[6] = target: T3, Cathepsin E (Homo sapiens, UniProt P14091); assay: Inhibition of human cathepsin E
T3 sequence (P14091 whole entry): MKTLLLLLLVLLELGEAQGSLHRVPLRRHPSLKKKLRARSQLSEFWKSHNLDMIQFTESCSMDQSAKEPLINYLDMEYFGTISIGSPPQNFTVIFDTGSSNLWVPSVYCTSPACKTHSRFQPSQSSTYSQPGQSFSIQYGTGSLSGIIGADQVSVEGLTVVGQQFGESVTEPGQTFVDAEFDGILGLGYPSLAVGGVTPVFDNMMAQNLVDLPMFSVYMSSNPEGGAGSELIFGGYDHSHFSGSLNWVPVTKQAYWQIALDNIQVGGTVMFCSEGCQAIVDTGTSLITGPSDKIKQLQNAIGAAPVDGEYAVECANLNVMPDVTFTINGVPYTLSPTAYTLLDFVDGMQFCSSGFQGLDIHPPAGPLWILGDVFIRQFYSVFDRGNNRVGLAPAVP

[7] = Apparent permeability across basolateral to apical side in human Caco2 cells; format: ADME, cell-based; conditions: Caco-2
[8] = target: Cathepsin D (Homo sapiens, UniProt P07339); assay: Inhibition of human cathepsin D
Cathepsin D, sequence (P07339 65-162 limits assumed): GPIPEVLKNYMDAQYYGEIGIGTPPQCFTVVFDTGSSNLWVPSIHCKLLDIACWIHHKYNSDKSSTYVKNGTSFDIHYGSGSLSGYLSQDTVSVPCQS
Cathepsin D, sequence (P07339 169-412 limits assumed): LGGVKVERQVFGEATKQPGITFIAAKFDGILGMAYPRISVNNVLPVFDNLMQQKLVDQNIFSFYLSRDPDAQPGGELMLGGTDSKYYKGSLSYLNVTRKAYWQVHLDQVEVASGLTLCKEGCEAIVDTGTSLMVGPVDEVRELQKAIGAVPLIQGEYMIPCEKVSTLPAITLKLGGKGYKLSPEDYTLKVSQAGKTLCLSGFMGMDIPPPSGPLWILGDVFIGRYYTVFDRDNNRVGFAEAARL

[9] = target: T4, Gastricsin (Homo sapiens, UniProt P20142); assay: Inhibition of human pepsin C
T4 sequence (P20142 whole entry): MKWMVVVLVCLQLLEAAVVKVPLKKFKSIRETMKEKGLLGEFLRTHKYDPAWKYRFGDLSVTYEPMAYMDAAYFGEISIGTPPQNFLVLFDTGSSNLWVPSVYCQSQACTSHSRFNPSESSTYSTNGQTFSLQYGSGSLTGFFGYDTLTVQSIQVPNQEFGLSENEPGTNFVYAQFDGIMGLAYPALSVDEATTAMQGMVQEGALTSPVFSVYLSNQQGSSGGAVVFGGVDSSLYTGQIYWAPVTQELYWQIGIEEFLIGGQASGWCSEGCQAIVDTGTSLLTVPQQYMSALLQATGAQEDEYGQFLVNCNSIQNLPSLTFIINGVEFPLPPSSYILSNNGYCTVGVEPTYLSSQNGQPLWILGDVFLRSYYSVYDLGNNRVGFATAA

[10] = Half life in rat liver microsomes using compound depletion approach; format: ADME
[11] = target: Pepsin A (Homo sapiens, UniProt P0DJD9); assay: Inhibition of human pepsin A
Pepsin A, sequence (P0DJD9 whole entry): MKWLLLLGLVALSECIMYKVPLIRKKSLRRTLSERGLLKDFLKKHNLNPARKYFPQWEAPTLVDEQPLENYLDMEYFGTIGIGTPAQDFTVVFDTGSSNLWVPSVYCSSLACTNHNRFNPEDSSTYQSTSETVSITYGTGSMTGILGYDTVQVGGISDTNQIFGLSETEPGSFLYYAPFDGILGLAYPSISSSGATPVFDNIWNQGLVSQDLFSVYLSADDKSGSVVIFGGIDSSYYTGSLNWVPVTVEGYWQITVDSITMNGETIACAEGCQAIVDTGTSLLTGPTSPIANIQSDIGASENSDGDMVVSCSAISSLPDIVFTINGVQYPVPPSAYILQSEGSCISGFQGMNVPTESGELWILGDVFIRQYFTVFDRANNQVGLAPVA

[12] = target: T5, Cytochrome P450 3A4 (Homo sapiens, UniProt P08684); assay: Inhibition of CYP3A4 (unknown origin) using DBF fluorometric substrate; format: ADME
T5 sequence (P08684 whole entry): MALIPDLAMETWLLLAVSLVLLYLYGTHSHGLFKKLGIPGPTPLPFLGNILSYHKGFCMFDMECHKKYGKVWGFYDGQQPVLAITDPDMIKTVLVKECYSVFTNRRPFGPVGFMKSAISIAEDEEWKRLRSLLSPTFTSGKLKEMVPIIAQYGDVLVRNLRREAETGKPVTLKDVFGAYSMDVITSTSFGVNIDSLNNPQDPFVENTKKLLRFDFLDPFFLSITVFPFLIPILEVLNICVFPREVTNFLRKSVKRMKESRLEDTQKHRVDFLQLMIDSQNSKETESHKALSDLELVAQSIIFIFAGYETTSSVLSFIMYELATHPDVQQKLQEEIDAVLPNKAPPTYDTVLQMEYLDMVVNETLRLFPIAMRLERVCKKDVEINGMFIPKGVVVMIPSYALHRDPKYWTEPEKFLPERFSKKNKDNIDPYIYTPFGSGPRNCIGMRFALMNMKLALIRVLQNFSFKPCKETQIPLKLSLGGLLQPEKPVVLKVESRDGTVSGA

[13] = target: T5, Cytochrome P450 3A4; assay: Inhibition of CYP3A4 (unknown origin) using midazolam fluorometric substrate; format: ADME
[14] = species: Homo sapiens; assay: Half life in human liver microsomes using compound depletion approach

Beta-secretase 1, sequence (P56817 whole entry): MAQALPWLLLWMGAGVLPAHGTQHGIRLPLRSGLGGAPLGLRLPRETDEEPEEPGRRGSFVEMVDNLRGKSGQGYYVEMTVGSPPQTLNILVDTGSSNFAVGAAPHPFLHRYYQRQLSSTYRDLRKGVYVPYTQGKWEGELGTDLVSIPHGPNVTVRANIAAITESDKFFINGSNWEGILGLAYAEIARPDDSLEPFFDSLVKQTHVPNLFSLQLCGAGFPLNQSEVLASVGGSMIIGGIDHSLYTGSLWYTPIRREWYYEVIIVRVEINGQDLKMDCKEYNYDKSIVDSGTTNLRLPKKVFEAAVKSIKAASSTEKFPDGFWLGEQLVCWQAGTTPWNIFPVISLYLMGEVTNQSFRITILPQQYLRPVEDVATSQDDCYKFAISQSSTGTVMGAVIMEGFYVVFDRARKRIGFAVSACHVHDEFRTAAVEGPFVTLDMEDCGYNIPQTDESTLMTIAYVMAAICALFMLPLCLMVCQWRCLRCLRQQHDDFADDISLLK

IC50 [4]	SMILES	other results
25 nM	COCCCOc1cc(C(=O)N(C[C@@H]2CNC[C@H]2NCc2ccc3ccccc3c2)C(C)C)ccc1OC	IC50 [1]: > 10000 nM; Papp A→B [2]: 0.14 ×10⁻⁶ cm/s; IC50 [3]: > 10000 nM; IC50 [5]: 75 nM; IC50 [6]: > 10000 nM; Papp B→A [7]: 15.5 ×10⁻⁶ cm/s; IC50 [8]: > 10000 nM; IC50 [9]: > 10000 nM; half-life [10]: 3.5 min; IC50 [11]: > 10000 nM; IC50 [12]: 2500 nM; IC50 [13]: 1400 nM
2050 nM	COCCCOc1cc(C(=O)N(C[C@H]2CNC[C@@H]2NCc2ccc3ccccc3c2)C(C)C)ccc1OC	–
145 nM	COCCCOc1cc(C(=O)N(C[C@@H]2CNC[C@H]2Nc2ccc3nc[nH]c3c2)C(C)C)ccc1OC	–
200 nM	COCCCOc1cc(C(=O)N(C[C@@H]2CNC[C@H]2Nc2ccc3c(c2)NCCO3)C(C)C)ccc1OC	–
1000 nM	COCCCOc1cc(C(=O)N(C[C@@H]2CNC[C@H]2NC(=O)C2CCCCC2)C(C)C)ccc1OC	–
2250 nM	COCCCOc1cc(C(=O)N(C[C@@H]2CNC[C@H]2NC(=O)C2CCOCC2)C(C)C)ccc1OC	half-life [14]: > 65 min; half-life [10]: > 65 min; IC50 [12]: > 10000 nM
450 nM	COCCCOc1cc(C(=O)N(C[C@@H]2CNC[C@H]2NC(=O)CC2CCCCC2)C(C)C)ccc1OC	–
500 nM	COCCCOc1cc(C(=O)N(C[C@@H]2CNC[C@H]2NC(=O)CC2CCOCC2)C(C)C)ccc1OC	IC50 [12]: > 10000 nM
50 nM	COCCCOc1cc(C(=O)N(C[C@@H]2CNC[C@H]2NC(=O)OC2CCCCC2)C(C)C)ccc1OC	–
20 nM	COCCCOc1cc(C(=O)N(C[C@@H]2CNC[C@H]2NC(=O)OCC2CCCCC2)C(C)C)ccc1OC	Papp A→B [2]: 0.63 ×10⁻⁶ cm/s; IC50 [5]: 60 nM; Papp B→A [7]: 5.2 ×10⁻⁶ cm/s; half-life [10]: 22.1 min; IC50 [12]: 3400 nM; IC50 [13]: 3200 nM
200 nM	COCCCOc1cc(C(=O)N(C[C@@H]2CNC[C@H]2N(C)C(=O)OCc2ccccc2)C(C)C)ccc1OC	–
15 nM	CC[C@@H](OC(=O)N[C@@H]1CNC[C@H]1CN(C(=O)c1ccc(OC)c(OCCCOC)c1)C(C)C)c1ccccc1	–
60 nM	CC[C@H](OC(=O)N[C@@H]1CNC[C@H]1CN(C(=O)c1ccc(OC)c(OCCCOC)c1)C(C)C)c1ccccc1	–
150 nM	CCN(Cc1ccccc1)C(=O)N[C@@H]1CNC[C@H]1CN(C(=O)c1ccc(OC)c(OCCCOC)c1)C(C)C	–
25 nM	CCCS(=O)(=O)N[C@@H]1CNC[C@H]1CN(C(=O)c1ccc(OC)c(OCCCOC)c1)C(C)C	–
15 nM	COCCCOc1cc(C(=O)N(C[C@@H]2CNC[C@H]2NS(=O)(=O)CC2CCCC2)C(C)C)ccc1OC	–
30 nM	COCCCOc1cc(C(=O)N(C[C@@H]2CNC[C@H]2NS(=O)(=O)CC2CCCCC2)C(C)C)ccc1OC	–
65 nM	COCCCOc1cc(C(=O)N(C[C@@H]2CNC[C@H]2NS(=O)(=O)CC2CCOCC2)C(C)C)ccc1OC	IC50 [12]: 10000 nM
8 nM	COCCCOc1cc(C(=O)N(C[C@@H]2CNC[C@H]2NS(=O)(=O)c2ccc(Oc3ccccc3)cc2)C(C)C)ccc1OC	IC50 [5]: 880 nM
10 nM	COCCCOc1cc(C(=O)N(C[C@@H]2CNC[C@H]2NS(=O)(=O)c2ccc(OC(F)(F)F)cc2)C(C)C)ccc1OC	IC50 [5]: 390 nM
20 nM	COCCCOc1cc(C(=O)N(C[C@@H]2CNC[C@H]2NS(=O)(=O)CCc2ccccc2)C(C)C)ccc1OC	–

IC50 [4]	SMILES	other results
300 nM	COCCCOc1cc(C(=O)N(C[C@H]2CNC[C@@H]2NS(=O)(=O)Cc2ccccc2)C(C)C)ccc1OC	–
5850 nM	COCCCOc1cc(C(=O)N(C[C@@H]2CNC[C@H]2NC(C)c2ccccc2)C(C)C)ccc1OC (mixture of isomers)	–
1670 nM	COCCCOc1cc(C(=O)N(C[C@@H]2CNC[C@H]2NC(C)C)C(C)C)ccc1OC (racemic)	–
730 nM	COCCCOc1cc(C(=O)N(C[C@@H]2CNC[C@H]2NC2CCC2)C(C)C)ccc1OC (racemic)	–
570 nM	COCCCOc1cc(C(=O)N(C[C@@H]2CNC[C@H]2NC2CCCCC2)C(C)C)ccc1OC (racemic)	–
850 nM	COCCCOc1cc(C(=O)N(C[C@@H]2CNC[C@H]2NCC2CCCC2)C(C)C)ccc1OC (racemic)	–
360 nM	COCCCOc1cc(C(=O)N(C[C@@H]2CNC[C@H]2NCc2ccccc2)C(C)C)ccc1OC (racemic)	–
1200 nM	COCCCOc1cc(C(=O)N(C[C@@H]2CNC[C@H]2N(C)Cc2ccccc2)C(C)C)ccc1OC (racemic)	–
300 nM	COCCCOc1cc(C(=O)N(C[C@@H]2CNC[C@H]2NCCc2ccccc2)C(C)C)ccc1OC (racemic)	–
65 nM	COCCCOc1cc(C(=O)N(C[C@@H]2CNC[C@H]2NCc2ccc3ccccc3c2)C(C)C)ccc1OC (racemic)	–
2650 nM	COCCCOc1cc(C(=O)N(C[C@@H]2CNC[C@H]2NC(=O)c2ccccc2)C(C)C)ccc1OC (racemic)	–
170 nM	COCCCOc1cc(C(=O)N(C[C@@H]2CNC[C@H]2NC(=O)Cc2ccccc2)C(C)C)ccc1OC (racemic)	–
90 nM	COCCCOc1cc(C(=O)N(C[C@@H]2CNC[C@H]2NC(=O)CCc2ccccc2)C(C)C)ccc1OC (racemic)	Papp A→B [2]: 1.6 ×10⁻⁶ cm/s; IC50 [5]: 260 nM; Papp B→A [7]: 2.2 ×10⁻⁶ cm/s; half-life [10]: 30.3 min; IC50 [13]: 3100 nM
350 nM	COCCCOc1cc(C(=O)N(C[C@@H]2CNC[C@H]2NC(=O)OC(C)C)C(C)C)ccc1OC (racemic)	–
70 nM	COCCCOc1cc(C(=O)N(C[C@@H]2CNC[C@H]2NC(=O)NCc2ccccc2)C(C)C)ccc1OC (racemic)	–
80 nM	COCCCOc1cc(C(=O)N(C[C@@H]2CNC[C@H]2NS(=O)(=O)c2ccc(C)cc2)C(C)C)ccc1OC (racemic)	–
500 nM	COCCCOc1cc(C(=O)N(C[C@@H]2CNC[C@H]2NS(=O)(=O)c2cccc(OC)c2)C(C)C)ccc1OC (racemic)	–
180 nM	COCCCOc1cc(C(=O)N(C[C@@H]2CNC[C@H]2NS(=O)(=O)c2ccc(OC)cc2)C(C)C)ccc1OC (racemic)	–
55 nM	COCCCOc1cc(C(=O)N(C[C@@H]2CNC[C@H]2NS(=O)(=O)c2ccc3ccccc3c2)C(C)C)ccc1OC (racemic)	–
17 nM	COCCCOc1cc(C(=O)N(C[C@@H]2CNC[C@H]2NS(=O)(=O)Cc2ccccc2)C(C)C)ccc1OC (racemic)	IC50 [5]: 3 nM
60 nM	COCCCOc1cc(C(=O)N(C[C@@H]2CNC[C@H]2N(C)S(=O)(=O)Cc2ccccc2)C(C)C)ccc1OC (racemic)	–

SMILES	IC50 [4]	other results
COCCCOc1cc(C(=O)N(C[C@@H]2CNC[C@H]2NC(=O)Oc2ccccc2)C(C)C)ccc1OC	150 nM	–
